Data taken from US9169217B2, “Arylalkyl esters of 4-amino-6-(substituted phenyl)-picolinates and 6-amino-2-(substituted phenyl)-pyrimidinecarboxylates and their use as selective herbicides for crops” (Dow AgroSciences LLC, priority 2011, dated 2015).

Assays:
[1] = tested on: Fimbristylis miliacea (L.) VAHL (globe fringerush); assay: In-water applied herbicidal activity in transplanted paddy rice (Example 17); type: in vivo; conditions: rice cropping systems, in-water applied (paddy), 35 g ae/ha, 21 DAA; may represent multiple trials
Description: (§1) Weed seeds or nutlets of the desired test plant species were planted in puddled soil (mud) prepared by mixing a non-sterilized mineral soil (28 percent silt, 18 percent clay, and 54 percent sand, with a pH of about 7.3 to 7.8 and an organic matter content of about 1.0 percent) and water at a ratio of 100 kilograms (kg) of soil to 19 liters (L) of water. The prepared mud was dispensed in 250 mL aliquots into 480 mL non-perforated plastic pots with a surface area of 91.6 cm^2 leaving a headspace of 3 cm in each pot. Rice seeds were planted in Sun Gro MetroMix 306 planting mixture, which typically has a pH of 6.0 to 6.8 and an organic matter content of about 30 percent, in plastic plug trays. Seedlings at the second or third leaf stage of growth were transplanted into 650 mL of mud contained in 960 mL non-perforated plastic pots with a surface area of 91.6 cm^2 four days prior to herbicide application. The paddy was created by filling the 3 cm headspace of the pots with water. When required to ensure good germination and healthy plants, a fungicide treatment and/or other chemical or physical treatment was applied. The plants were grown for 4-14 d in a greenhouse with an approximate 14-h photoperiod which was maintained at about 29° C. during the day and 26° C. during the night. Nutrients were added as Osmocote (17:6:10, Nitrogen:Phosphorus:Potassium (N:P:K)+minor nutrients) at 2 grams (g) per cup. Water was added on a regular basis to maintain the paddy flood, and supplemental lighting was provided with overhead metal halide 1000-Watt lamps as necessary. The plants were employed for testing when they reached the second or third true leaf stage.
(§2) Treatments consisted of esters of compounds 1-4, 6-33, 35-39, 41 and 42 and A-G. Compound A is methyl 4-amino-3-chloro-6-(4-chloro-3-ethoxy-2-fluorophenyl)-5-fluoropicolinate; compound B is methyl 4-amino-3-chloro-6-(4-cyclopropylphenyl)-5-fluoropicolinate; compound C is methyl 4-amino-3-chloro-6-(2,4-dichloro-3-methoxyphenyl)picolinate; compound D is methyl 6-amino-2-(4-chloro-2-fluoro-3-methoxyphenyl)-5-vinylpyrimidine-4-carboxylate; compound E is methyl 4-amino-3-chloro-6-(4-chloro-2-fluoro-3-methoxyphenyl)-5-fluoropicolinate; compound F is methyl 6-amino-2-(4-chloro-2-fluoro-3-methoxyphenyl)-5-methoxypyrimidine-4-carboxylate; and compound G is methyl 4-amino-3-chloro-6-(4-chloro-2-fluoro-3-methoxyphenyl)picolinate. Weighed amounts of technical grade compounds were placed in individual 120 mL glass vials and were dissolved in 20 mL of acetone to obtain concentrated stock solutions. […] The concentrated stock solutions obtained were diluted with 20 mL of an aqueous mixture containing 2.5% Agri-dex crop oil concentrate (v/v). The final application solutions contained 1.25% (v/v) Agri-dex crop oil concentrate. Generally, multiple concentrations were tested utilizing the same stock solution. Applications were made by injecting an appropriate amount of the application solution into the aqueous layer of the paddy. Control plants were treated in the same manner with the solvent blank.
(§3) The treated plants and control plants were placed in a greenhouse as described above and water was added as needed to maintain a paddy flood. After 3 weeks the condition of the test plants, compared with that of the untreated plants, was determined visually and scored on a scale of 0 to 100 percent where 0 corresponds to no injury and 100 corresponds to complete kill.
(§4) By applying the well-accepted probit analysis as described by J. Berkson in Journal of the American Statistical […], 48, 565 (1953) and by D. Finney in “Probit Analysis” Cambridge University Press (1952), the data gathered can be used to calculate GR50 and GR80 values, which are defined as growth reduction factors that correspond to the effective dose of herbicide required to kill or control 50 percent or 80 percent, respectively, of a target plant.

[2] = tested on: Veronica persica (Speedwell, birdseye); assay: Postemergence herbicidal activity in cereal crops (Example 14); type: in vivo; conditions: wheat cropping systems, postemergence spray, 8.75 g ae/ha, 21 DAA
Description: (§5) Seeds of the desired test plant species were planted in Sun Gro Metro-Mix® 360 planting mixture, which typically has a pH of 6.0 to 6.8 and an organic matter content of about 30 percent, in plastic pots with a surface area of 84.6 cm^2. When required to ensure good germination and healthy plants, a fungicide treatment and/or other chemical or physical treatment was applied. The plants were grown for 7-36 d in a greenhouse with an approximate 14 h photoperiod which was maintained at about 18° C. during the day and 17° C. during the night. Nutrients and water were added on a regular basis and supplemental lighting was provided with overhead metal halide 1000-Watt lamps as necessary. The plants were employed for testing when they reached the second or third true leaf stage.
(§6) Treatments consisted of esters of compounds 33, 34, 39, 40 and 42 and B, F, G and H. Compound B is methyl 4-amino-3-chloro-6-(4-cyclopropylphenyl)-5-fluoropicolinate; compound F is methyl 6-amino-2-(4-chloro-2-fluoro-3-methoxyphenyl)-5-methoxypyrimidine-4-carboxylate; compound G is methyl 4-amino-3-chloro-6-(4-chloro-2-fluoro-3-methoxyphenyl)picolinate; and compound H is methyl 4-amino-3-chloro-6-(4-chloro-2-fluoro-3-(1-fluoroethyl)phenyl)-5-fluoropicolinate. A weighed amount, determined by the highest rate to be tested, of each test compound was placed in a 25 mL glass vial and was dissolved in 8 mL of a 97:3 v/v mixture of acetone and DMSO to obtain concentrated stock solutions. […] The concentrated stock solutions obtained were diluted with 16 mL of an aqueous mixture containing acetone, water, isopropyl alcohol, DMSO, Agri-dex crop oil concentrate, and Triton® X-77 surfactant in a 64.7:26.0:6.7:2.0:0.7:0.01 v/v ratio to obtain spray solutions containing the highest application rates. Additional application rates were obtained by serial dilution of 12 mL of the high rate solution into a solution containing 4 mL of a 97:3 v/v mixture of acetone and DMSO and 8 mL of an aqueous mixture containing acetone, water, isopropyl alcohol, DMSO, Agri-dex crop oil concentrate, and Triton® X-77 surfactant in a 48.5:39.0:10.0:1.5:1.0:0.02 v/v ratio to obtain ½×, ¼×, ⅛× and 1/16× rates of the high rate. Compound requirements are based upon a 12 mL application volume at a rate of 187 L/ha. Formulated compounds were applied to the plant material with an overhead Mandel track sprayer equipped with 8002E nozzles calibrated to deliver 187 L/ha over an application area of 0.503 m^2 at a spray height of 18 inches (43 cm) above average plant canopy height. Control plants were sprayed in the same manner with the blank.
(§7) The treated plants and control plants were placed in a greenhouse as described above and watered by sub-irrigation to prevent wash-off of the test compounds. After 20-22 d, the condition of the test plants as compared with that of the untreated plants was determined visually and scored on a scale of 0 to 100 percent where 0 corresponds to no injury and 100 corresponds to complete kill.

[3] = tested on: Pennisetum glaucum (Foxtail, yellow); assay: as above; type: in vivo; conditions: wheat cropping systems, postemergence spray, 8.75 g ae/ha, 21 DAA
Description: as §5, §6, §7

[4] = tested on: Brassica sinapis (Mustard, wild); assay: as above; type: in vivo; conditions: wheat cropping systems, postemergence spray, 8.75 g ae/ha, 21 DAA
Description: as §5, §6, §7

[5] = tested on: Echinochloa crus-galli (L.) P.BEAUV. (barnyardgrass); assay: In-water applied herbicidal activity in transplanted paddy rice (Example 17); type: in vivo; conditions: Echinochloa crus-galli, 504 h; rice cropping systems, in-water applied (paddy), 35 g ae/ha, 21 DAA; may represent multiple trials; read-out: Visual Injury (%) ECHCG
Description: as §1, §2, §3, §4

[6] = tested on: Cyperus rotundus L. (purple nutsedge); assay: as above; type: in vivo; conditions: rice cropping systems, 35 g ae/ha, 21 DAA, may represent multiple trials
Description: as §1, §2, §3, §4

[7] = tested on: Scirpus juncoides ROXB. (Japanese bulrush); assay: as above; type: in vivo; conditions: Schoenoplectiella juncoides, 504 h; rice cropping systems, in-water applied (paddy), 35 g ae/ha, 21 DAA; may represent multiple trials; read-out: Visual Injury (%) SCPJU
Description: as §1, §2, §3, §4

[8] = tested on: Scirpus juncoides ROXB. (Japanese bulrush); assay: Postemergence foliar-applied herbicidal activity in direct seeded rice (Example 16); type: in vivo; conditions: Schoenoplectiella juncoides, post-emergence, 504 h; rice cropping systems, foliar-applied, 8.75 g ae/ha, 21 DAA; may represent multiple trials; read-out: Visual Injury (%) SCPJU
From the text: (§8) Seeds or nutlets of the desired test plant species were planted in a soil matrix prepared by mixing a loam soil (43 percent silt, 19 percent clay, and 38 percent sand, with a pH of about 8.1 and an organic matter content of about 1.5 percent) and river sand in an 80 to 20 ratio. The soil matrix was contained in plastic pots with a surface area of 139.7 cm^2. When required to ensure good germination and healthy plants, a fungicide treatment and/or other chemical or physical treatment was applied. The plants were grown for 10-17 d in a greenhouse with an approximate 14-h photoperiod which was maintained at about 29° C. during the day and 26° C. during the night. Nutrients and water were added on a regular basis and supplemental lighting was provided with overhead metal halide 1000-Watt lamps as necessary. The plants were employed for testing when they reached the second or third true leaf stage.
(§9) Treatments consisted of esters of compounds 1-4, 6-8, 10, 11, 13-16, 20-31, 35, 38, 41 and 42 and A-E. Compound A is methyl 4-amino-3-chloro-6-(4-chloro-3-ethoxy-2-fluorophenyl)-5-fluoropicolinate; compound B is methyl 4-amino-3-chloro-6-(4-cyclopropylphenyl)-5-fluoropicolinate; compound C is methyl 4-amino-3-chloro-6-(2,4-dichloro-3-methoxyphenyl)picolinate; compound D is methyl 6-amino-2-(4-chloro-2-fluoro-3-methoxyphenyl)-5-vinylpyrimidine-4-carboxylate; and compound E is methyl 4-amino-3-chloro-6-(4-chloro-2-fluoro-3-methoxyphenyl)-5-fluoropicolinate. Weighed amounts of technical grade compounds were placed in 25 mL glass vials and dissolved in a volume of 97:3 v/v acetone-DMSO to obtain 12× stock solutions. […] The concentrated stock solutions were added to the spray solutions so that the final acetone and DMSO concentrations were 16.2% and 0.5%, respectively. Spray solutions were diluted to the appropriate final concentrations with the addition of 10 mL of an aqueous mixture of 1.5% (v/v) Agri-dex crop oil concentrate. Generally, multiple concentrations of spray solutions were formulated and tested utilizing the same stock solution. The final spray solutions contained 1.25% (v/v) Agri-dex crop oil concentrate. Compound requirements are based upon a 12 mL application volume at a rate of 187 L/ha. Spray solutions were applied to the plant material with an overhead Mandel track sprayer equipped with 8002E nozzles calibrated to deliver 187 L/ha over an application area of 0.503 square meters (m^2) at a spray height of 18 inches (43 cm) above average plant canopy height. Control plants were sprayed in the same manner with the solvent blank.
as §7, with “After 3 weeks,” for “After 20-22 d,”, “test plants,” for “test plants as”, “untreated plants,” for “untreated plants”
as §4

[9] = tested on: Echinochloa colonum (L.) LINK (junglerice); assay: as above; type: in vivo; conditions: Echinochloa colona, post-emergence, 504 h, rice cropping systems, 8.75 g ae/ha, 21 DAA, may represent multiple trials, read-out: Visual Injury (%) ECHCO
From the text: as §8, §9
as §7, with “After 3 weeks,” for “After 20-22 d,”, “test plants,” for “test plants as”, “untreated plants,” for “untreated plants”
as §4

[10] = tested on: Brachiaria platyphylla (GRISEB.) NASH (broadleaf signalgrass); assay: as above; type: in vivo; conditions: rice cropping systems, 8.75 g ae/ha, 21 DAA, may represent multiple trials
From the text: as §8, §9
as §7, with “After 3 weeks,” for “After 20-22 d,”, “test plants,” for “test plants as”, “untreated plants,” for “untreated plants”
as §4

[11] = tested on: Cyperus difformis L. (small-flower flatsedge); assay: as above; type: in vivo; conditions: post-emergence, 504 h, rice cropping systems, foliar-applied, 8.75 g ae/ha, 21 DAA, may represent multiple trials, read-out: Visual Injury (%) CYPDI
From the text: as §8, §9
as §7, with “After 3 weeks,” for “After 20-22 d,”, “test plants,” for “test plants as”, “untreated plants,” for “untreated plants”
as §4

[12] = tested on: Echinochloa crus-galli (L.) P.BEAUV. (barnyardgrass); assay: as above; type: in vivo; conditions: rice cropping systems, 8.75 g ae/ha, 21 DAA, may represent multiple trials
From the text: as §8, §9
as §7, with “After 3 weeks,” for “After 20-22 d,”, “test plants,” for “test plants as”, “untreated plants,” for “untreated plants”
as §4

| Structure (SMILES) | pest or weed control at 35 g/ha [5] [%] | pest or weed control at 35 g/ha [7] [%] | pest or weed control at 8.75 g/ha [8] [%] | pest or weed control at 8.75 g/ha [9] [%] | Visual Injury (%) BRAPP [10] [%] | pest or weed control at 8.75 g/ha [11] [%] | other results |
| --- | --- | --- | --- | --- | --- | --- | --- |
| COc1ccc(COC(=O)c2nc(-c3ccc(Cl)c(OC)c3F)cc(N)c2Cl)cc1 [Compound 36, 4-methoxybenzyl 4-amino-3-chloro-6-(4-chloro-2-fluoro-3-methoxyphenyl)picolinate] | – | – | – | – | – | – | Visual Injury (%) FIMMI [1]: 100% |
| COC(=O)c1nc(-c2ccc(Cl)c(C(C)F)c2F)c(F)c(N)c1Cl (stereo not shown) [Compound H, methyl 4-amino-3-chloro-6-(4-chloro-2-fluoro-3-(1-fluoroethyl)phenyl)-5-fluoropicolinate, reference compound] | – | – | – | – | – | – | Visual Injury (%) VERPE [2]: 80%; Visual Injury (%) PESGL [3]: 0%; Visual Injury (%) SINAR [4]: 87% |
| COc1c(Cl)ccc(-c2cc(N)c(Cl)c(C(=O)OCc3ccc(Cl)cc3Cl)n2)c1F [Compound 17, 2,4-dichlorobenzyl 4-amino-3-chloro-6-(4-chloro-2-fluoro-3-methoxyphenyl)picolinate] | 98 | – | – | – | – | – | Visual Injury (%) CYPRO [6]: 100% |
| COc1c(Cl)ccc(-c2cc(N)c(Cl)c(C(=O)OCc3ccccc3)n2)c1Cl [Compound 38, benzyl 4-amino-3-chloro-6-(2,4-dichloro-3-methoxyphenyl)-picolinate] | 99 | 100 | 100 | 90 | 90 | 100 | – |
| C=Cc1c(N)nc(-c2ccc(Cl)c(OC)c2F)nc1C(=O)OCc1ccccc1 [Compound 35, benzyl 6-amino-2-(4-chloro-2-fluoro-3-methoxyphenyl)-5-vinylpyrimidine-4-carboxylate] | 76 | – | – | 90 | – | – | Visual Injury (%) ECHCG [12]: 95%; melting point: 119 to 121 °C |
| COC(=O)c1nc(-c2ccc(Cl)c(OC)c2Cl)cc(N)c1Cl [Compound C, methyl 4-amino-3-chloro-6-(2,4-dichloro-3-methoxyphenyl)picolinate, reference compound] | 36 | 83 | 90 | 84 | 74 | 96 | – |
